The values below come from PMC7070685, “Efficient Biocatalytic Synthesis of Dihalogenated Purine Nucleoside Analogues Applying Thermodynamic Calculations” (Molecules, 2020).

Molecules are shown by their SMILES.

In one experiment the test system is HL-60 cells. Briefly: XTT cell proliferation assay, HL-60. The experiment is classed as cell-based. The note with it: Homo sapiens; leukemia cell line HL-60, XTT assay after 24 h; read-out: IC50, inhibition of growth of HL-60 cells. The procedure:
(§1) HEK293 cells were cultured in […] Dulbecco’s modified Eagle’s medium (Biowest) containing 10% fetal bovine serum, 2 mM glutamine, non-essential amino acids, 4.5 mg mL^−1 glucose, and the antibiotics penicillin and streptomycin. HL-60 cells were cultured in RPMI 1640 w/o L-Glutamine supplemented with 10% fetal bovine serum, 2 mM glutamine, and the antibiotics penicillin and streptomycin. Cells were grown at 37 °C in a humidified atmosphere with 5% CO2.
(§2) Cytotoxicity was measured by the XTT assay at 450 nm as described by the manufacturer (Roche Diagnostics, Basel, Switzerland). Phosphate-buffered saline was used as negative control. For HL-60 and HEK293 cells, 1.2 × 10^5 cells in growth media were transferred to each well of a 96-well flat-bottom plate. Subsequently, modified nucleosides were added in varying concentrations. XTT assay was performed after 24 h for HL-60 and HEK293 cells, as described previously. At least three replicates for each nucleoside concentration were performed. All experiments were conducted for a minimum of three independent experiments.
In general terms: Tetrazolium dyes change colour on reduction, which living cells bring about.

A further experiment deals with HEK293 cells. Nature of the experiment: XTT cell proliferation assay, control cell line HEK293. It counts as cell-based. The note with it: control cell line HEK293, XTT assay after 24 h. The procedure: as §1, §2

In the case of `Nc1nc(Cl)nc2c1ncn2[C@H]1C[C@H](O)[C@@H](CO)O1` [cladribine], the IC50 in the experiment with HL-60 cells amounted to 220 nM. Moreover, the “inhibition of growth of the control cell line HEK293” value in the experiment on HEK293 cells was “No unspecific growth inhibition”.

Usually IC50 stands for the concentration that inhibits the measured activity by half.
